This is an account of results in patent publication US8299277B2, “Radiation protection drug containing tocopherol or tocotrienol compound ester derivative as active ingredient” (priority 2006, dated 2012).

This assay has as its system male C3H mice irradiated with X-rays. As to the kind of experiment: 30-day survival of mice after X-ray irradiation (radiation protection). The assay is classed as in vivo. The protocol: Seven to thirteen male C3H mice aged 10 weeks (body weight: 25-28 g) per group were irradiated with X-rays (7.5-8.5 Gy) and their survival rate was determined 30 days after the irradiation. To each of drug-treated groups was intraperitoneally or subcutaneously administered 0.5% methylcellulose solution (0.3 ml) containing d-γ-tocopherol-N,N-dimethylglycine ester hydrochloride in an amount of 10-300 mg/Kg, before or after the irradiation. To a control group was intraperitoneally administered 0.5% methylcellulose solution in a volume of 0.3 ml per mouse.
Eight to eleven male C3H mice aged 10 weeks (body weight: 25-28 g) per group were irradiated with X-rays (7.5 Gy) and their survival rate was measured 30 days after the irradiation. To drug-treated groups was intraperitoneally administered 0.5% methylcellulose solution (0.3 ml) containing d-α-tocopherol-N,N-dimethylglycine ester hydrochloride, d-γ- or d-α-tocotrienol-N,N-dimethylglycine ester hydrochloride, d-γ- or dl-α-tocopherol phosphate disodium salt, or d-γ-tocopherol-N-methyl-L-proline ester hydrochloride, respectively, in an amount of 100 mg/Kg, immediately after the irradiation. To a control group was intraperitoneally administered 0.5% methylcellulose solution in a volume of 0.3 ml per mouse.

The mark [1] stands for this setting: 100 mg/kg i.p., 7.5 Gy X-rays, administered immediately after irradiation, C3H mice (Table 2).

The structures appear in SMILES notation.

Turning to `Cc1c(OP(=O)([O-])[O-])cc2c(c1C)OC(C)(CCCC(C)CCCC(C)CCCC(C)C)CC2.[Na+].[Na+]` (stereo not drawn) [d-γ-Tocopherol phosphate disodium salt], under setting [1], the “Survival rate after 30 days (%)” value is listed as 70%.
In the case of `Cc1c(OC(=O)CN(C)C)cc2c(c1C)OC(C)(CCCC(C)CCCC(C)CCCC(C)C)CC2.Cl` (stereo not drawn) [d-γ-tocopherol-N,N-dimethylglycine ester hydrochloride], the “Survival rate after 30 days (%)” value runs as follows: (10 mg/kg i.p., 7.5 Gy X-rays, administered immediately after irradiation, C3H mice) 10%; (20 mg/kg i.p., 7.5 Gy X-rays, administered immediately after irradiation, C3H mice) 60%; (50 mg/kg i.p., 7.5 Gy X-rays, administered immediately after irradiation, C3H mice) 85%; (100 mg/kg S.C. administration, 7.5 Gy X-rays, administered immediately after irradiation, C3H mice) 85%; (100 mg/kg i.p., 7.5 Gy X-rays, administered 30 min. before irradiation, C3H mice) 60%; (100 mg/kg i.p., 7.5 Gy X-rays, administered 1 hr. after irradiation, C3H mice) 88%. In addition, the “Survival rate after 30 days (%)” value worked out at 75% (100 mg/kg i.p., 7.5 Gy X-rays, administered 10 hrs. after irradiation, C3H mice); 40% (100 mg/kg i.p., 7.5 Gy X-rays, administered 24 hrs. after irradiation, C3H mice); 98% (100 mg/kg i.p., 7.5 Gy X-rays, administered immediately after irradiation, C3H mice (Table 1)); 80% (100 mg/kg i.p., 7.5 Gy X-rays, administered immediately before irradiation, C3H mice); 78% (100 mg/kg i.p., 8 Gy X-rays, administered immediately after irradiation, C3H mice); 37% (100 mg/kg i.p., 8.5 Gy X-rays, administered immediately after irradiation, C3H mice). For the same compound, where the note is “300 mg/kg i.p., 7.5 Gy X-rays, administered immediately after irradiation, C3H mice”, the “Survival rate after 30 days (%)” value stood at 55%.
Take `Cc1c(OC(=O)[C@@H]2CCCN2C)cc2c(c1C)OC(C)(CCCC(C)CCCC(C)CCCC(C)C)CC2.Cl` (stereo partly drawn) [d-γ-tocopherol-L-N-methylproline ester hydrochloride]: under setting [1], the “Survival rate after 30 days (%)” value came to 90%.
With `CC(C)=CCCC(C)=CCCC(C)=CCCC1(C)CCc2c(C)c(OC(=O)CN(C)C)c(C)c(C)c2O1.Cl` (stereo not drawn) [d-α-Tocotrienol-N,N-dimethylglycine ester hydrochloride], the “Survival rate after 30 days (%)” value under setting [1] turned out to be 91%.
As for `Cc1c(C)c2c(c(C)c1OP(=O)([O-])[O-])CCC(C)(CCCC(C)CCCC(C)CCCC(C)C)O2.[Na+].[Na+]` (racemic) [dl-α-Tocopherol phosphate disodium salt], the “Survival rate after 30 days (%)” value under setting [1] came to 40%.
On the same count and under the same terms, the same measure for `Cc1c(C)c2c(c(C)c1OC(=O)CN(C)C)CCC(C)(CCCC(C)CCCC(C)CCCC(C)C)O2.Cl` (stereo not drawn) [d-α-tocopherol-N,N-dimethylglycine ester hydrochloride]: 95%; for `CC(C)=CCCC(C)=CCCC(C)=CCCC1(C)CCc2cc(OC(=O)CN(C)C)c(C)c(C)c2O1.Cl` (stereo not drawn) [d-γ-Tocotrienol-N,N-dimethylglycine ester hydrochloride]: 85%.
